Laboratory results from publication PMC9977398, “Next-generation membrane-active glycopeptide antibiotics that also inhibit bacterial cell division” (Chemical Science, 2023).

What was measured:
[1] = system: exponential growth phase MRSA; assay: Time-kill kinetics, exponentially growing MRSA; format: cell-based, S. aureus; details: for time to complete eradication: exponentially growing MRSA; for minimum bactericidal concentration (MBC): log-phase MRSA
Method: To examine the antibacterial properties of the two leads, VanQbiph (4) and VanQAmC10 (8), the kinetics of bactericidal activity against exponentially growing, log-phase cells of MRSA was evaluated (Fig. 1B). The minimum bactericidal concentration (MBC) of VanQbiph (4) and VanQAmC10 (8) was at 2×MIC. […]
Time-kill kinetics assay 4
(§1) The bactericidal activity of the compounds was evaluated with the time kill kinetics assay.
MRSA ATCC 33591 cells were cultured in nutrient media at 37°C for 6 h. VanQAmC 10, VanQbiph, and vancomycin was added to the bacterial solution (~1.8×10^5 CFU/mL) with the working concentration of 25 μM. This was incubated at 37°C. At different time intervals (0, 1, 2, 3, 6 and 24 h) 20 μL of aliquots from that solution were serially diluted 10 -fold in 0.9 % saline. Then from the dilutions, 20 μL was plated on yeast -dextrose agar plates and incubated at 37°C for 24 h. The bacterial colonies were counted and results are represented in logarithmic scale, i.e. log10 (CFU/mL). […]

[2] = system: MRSA; assay: Membrane permeabilization assay, propidium iodide uptake; format: cell-based, S. aureus
Method: The kinetics of permeabilization of membranes of MRSA and B. subtilis by the compounds was measured by the uptake of propidium iodide (PI). […] When the membrane integrity is compromised, it enters the cell and fluoresces upon binding to the DNA. Both VanQbiph (4) and VanQAmC10 (8) permeabilized the membrane in a concentration-dependent manner (Fig. S2 ^†). […] They caused gradual permeabilization against the stationary phase cells of MRSA as well (Fig. 2F). The extent of permeabilization was higher for VanQAmC10 (8) than VanQbiph (4) against both the log-phase and stationary-phase bacteria similar to that observed during depolarisation.
50 μL of serially diluted compound was added into 96 well microtiter plates. Freshly drawn, heparanized human blood was centrifuged down to obtain the erythrocytes and re-suspended to 5 vol % in PBS (pH 7.4). 150 μL of the erythrocyte suspension was added to the serially diluted compounds (from 500 µM to 2 µM). One set without compound and other with 50 μL of 1 vol % solution of Triton X-100 were kept as controls. […] 100 μL of the supernatant from each well were transferred into fresh microtiter plates, and A540 was measured.
% haemolysis = (A - A0)/(Atotal -A0) × 100, where A is the absorbance of the test well, A 0 the absorbance of the negative controls (without compound), and A total the absorbance of 100 % hemolysis wells (with Triton X -100), all at 540 nm. […]
2 h post incubation with dye, the absorbance was measured at 570 nm using 600 nm as […]
as §1
MRSA ATCC 33591 cells were cultured in nutrient media at 37°C for 6 h. […] The bacterial colonies were counted and results are represented in logarithmic scale, i.e. log10 (CFU/mL). […]
were added to it the wells containing bacterial suspension. Fluorescence has monitored at excitation wavelength of 535 nm (slit width: 10 nm) and emission wavelength of 617 nm (slit width: 5 nm). As a measure of inner membrane permeabilization the uptake of PI was monitor by the increase in fluorescence for 30-50 min. […]

SMILES	time to complete eradication ([1]; 8×MIC) [h]	minimum bactericidal concentration (MBC) [1] [×MIC]	time to membrane permeabilization ([2]; exponentially growing MRSA, 10 μM, PI uptake) [min]	time to complete eradication ([1]; 2×MIC) [h]	effect on membrane integrity (PI uptake) [2]
CCCCCCCCCCNC(=O)C[N+](C)(C)CCCNC(=O)C1NC(=O)C2NC(=O)C(NC(=O)C3NC(=O)C(CC(N)=O)NC(=O)C(NC(=O)C(CC(C)C)NC)C(O)c4ccc(c(Cl)c4)Oc4cc3cc(c4OC3OC(CO)C(O)C(O)C3OC3CC(C)(N)C(O)C(C)O3)Oc3ccc(cc3Cl)C2O)c2ccc(O)c(c2)-c2c(O)cc(O)cc21 (centres unmarked) [VanQAmC10 (8)]	≤ 6	2	≤ 4	–	–
CN[C@H](CC(C)C)C(=O)N[C@H]1C(=O)N[C@@H](CC(N)=O)C(=O)N[C@H]2C(=O)N[C@H]3C(=O)N[C@H](C(=O)N[C@H](C(=O)O)c4cc(O)cc(O)c4-c4cc3ccc4O)[C@H](O)c3ccc(c(Cl)c3)Oc3cc2cc(c3O[C@@H]2O[C@H](CO)[C@@H](O)[C@H](O)[C@H]2O[C@H]2C[C@](C)(N)[C@H](O)[C@H](C)O2)Oc2ccc(cc2Cl)[C@H]1O [Vancomycin, reference compound]	–	–	–	24	does not affect the membrane integrity
CNC(CC(C)C)C(=O)NC1C(=O)NC(CC(N)=O)C(=O)NC2C(=O)NC3C(=O)NC(C(=O)NC(C(=O)NCCC[N+](C)(C)Cc4ccc(-c5ccccc5)cc4)c4cc(O)cc(O)c4-c4cc3ccc4O)C(O)c3ccc(c(Cl)c3)Oc3cc2cc(c3OC2OC(CO)C(O)C(O)C2OC2CC(C)(N)C(O)C(C)O2)Oc2ccc(cc2Cl)C1O (centres unmarked) [VanQbiph (4)]	24	2	–	–	slower permeabilization
